Experimental data from the NIST ThermoML archive (doi:10.1021/acs.jced.7b01030).
Several values for one entry are separate records, joined by “and”; a condition that tells them apart may be missing. Equal values may be shown once.

Conditions: Liquid; for mass density: Vibrating tube method; for viscosity: Falling or rolling sphere viscometry; for self diffusion coefficient: NMR spin-echo technique

OCC(F)(F)F [2,2,2-trifluoroethanol]
Conditions	mass density [kg/m3]	self diffusion coefficient	viscosity
303.15 K, 100 kPa	1374.17	–	–
308.15 K, 100 kPa	–	–	1.384 mPa·s
308.28 K, 100 kPa	–	9.35e-10 m2/s	–
313.15 K, 100 kPa	1356.64	–	1.219 mPa·s and 1.221 mPa·s
318.15 K, 100 kPa	–	–	1.081 mPa·s and 1.078 mPa·s
318.17 K, 100 kPa	–	1.24e-09 m2/s and 1.22e-09 m2/s	–
322.14 K, 10500 kPa	–	–	1.125 mPa·s and 1.128 mPa·s
322.14 K, 25500 kPa	–	–	1.286 mPa·s
322.14 K, 50500 kPa	–	–	1.561 mPa·s
322.14 K, 75000 kPa	–	–	1.827 mPa·s
322.14 K, 75200 kPa	–	–	1.828 mPa·s
322.14 K, 100300 kPa	–	–	2.137 mPa·s
323.15 K, 100 kPa	1338.58	–	0.989 mPa·s [middle of 9 runs]
323.15 K, 10000 kPa	–	–	1.091 mPa·s
323.15 K, 10100 kPa	–	–	1.09 mPa·s
323.15 K, 25300 kPa	–	–	1.246 mPa·s
323.15 K, 25400 kPa	–	–	1.248 mPa·s
323.15 K, 49500 kPa	–	–	1.492 mPa·s
323.15 K, 49700 kPa	–	–	1.493 mPa·s
323.15 K, 74800 kPa	–	–	1.781 mPa·s
323.15 K, 75000 kPa	–	–	1.789 mPa·s
323.15 K, 99900 kPa	–	–	2.075 mPa·s
323.15 K, 100000 kPa	–	–	2.073 mPa·s
323.15 K, 100400 kPa	–	–	2.096 mPa·s and 2.093 mPa·s
323.15 K, 125000 kPa	–	–	2.396 mPa·s
323.15 K, 125400 kPa	–	–	2.395 mPa·s
323.15 K, 150100 kPa	–	–	2.737 mPa·s
323.15 K, 150500 kPa	–	–	2.738 mPa·s
323.15 K, 176000 kPa	–	–	3.131 mPa·s
323.15 K, 200300 kPa	–	–	3.654 mPa·s
323.15 K, 200800 kPa	–	–	3.651 mPa·s
323.15 K, 210100 kPa	–	–	3.837 mPa·s and 3.849 mPa·s
323.15 K, 225200 kPa	–	–	4.134 mPa·s
323.15 K, 225300 kPa	–	–	4.131 mPa·s
323.15 K, 226700 kPa	–	–	4.028 mPa·s
323.15 K, 227900 kPa	–	–	4.058 mPa·s
323.15 K, 248900 kPa	–	–	4.6 mPa·s
323.15 K, 249400 kPa	–	–	4.614 mPa·s
323.15 K, 275300 kPa	–	–	5.192 mPa·s
323.15 K, 275600 kPa	–	–	5.209 mPa·s
323.15 K, 300600 kPa	–	–	5.834 mPa·s
323.15 K, 301200 kPa	–	–	5.853 mPa·s
323.15 K, 325600 kPa	–	–	6.509 mPa·s
323.15 K, 326200 kPa	–	–	6.562 mPa·s
323.15 K, 347900 kPa	–	–	7.187 mPa·s
323.15 K, 349200 kPa	–	–	7.207 mPa·s
323.4 K, 100 kPa	–	1.45e-09 m2/s	–
323.5 K, 100 kPa	–	1.39e-09 m2/s	–
323.51 K, 100 kPa	–	1.42e-09 m2/s	–
323.51 K, 23000 kPa	–	1.21e-09 m2/s	–
323.51 K, 50000 kPa	–	1.01e-09 m2/s	–
323.51 K, 74000 kPa	–	8.73e-10 m2/s	–
323.51 K, 99500 kPa	–	7.59e-10 m2/s	–
323.51 K, 300000 kPa	–	3.12e-10 m2/s	–
323.52 K, 150000 kPa	–	5.97e-10 m2/s	–
323.52 K, 198500 kPa	–	4.81e-10 m2/s	–
323.52 K, 249000 kPa	–	3.9e-10 m2/s	–
323.53 K, 351000 kPa	–	2.57e-10 m2/s	–
328.15 K, 100 kPa	–	–	0.8939 mPa·s and 0.8974 mPa·s
328.35 K, 100 kPa	–	1.63e-09 m2/s	–
333.15 K, 100 kPa	1319.81	–	0.8117 mPa·s
338.15 K, 100 kPa	1310.14	–	0.7379 mPa·s and 0.7382 mPa·s
338.44 K, 100 kPa	–	1.95e-09 m2/s	–
342.8 K, 100 kPa	–	2.21e-09 m2/s	–
343.15 K, 100 kPa	1300.26	–	0.671 mPa·s [middle of 5 runs]
343.15 K, 10500 kPa	–	–	0.7504 mPa·s and 0.7498 mPa·s
343.15 K, 25500 kPa	–	–	0.8438 mPa·s
343.15 K, 50000 kPa	–	–	1.016 mPa·s
343.15 K, 76400 kPa	–	–	1.229 mPa·s and 1.228 mPa·s
343.15 K, 99900 kPa	–	–	1.425 mPa·s
343.15 K, 100500 kPa	–	–	1.411 mPa·s
343.15 K, 100700 kPa	–	–	1.419 mPa·s and 1.416 mPa·s
343.15 K, 100900 kPa	–	–	1.421 mPa·s
343.15 K, 125800 kPa	–	–	1.666 mPa·s
343.15 K, 126100 kPa	–	–	1.66 mPa·s
343.15 K, 150000 kPa	–	–	1.894 mPa·s
343.15 K, 150200 kPa	–	–	1.899 mPa·s
343.15 K, 175300 kPa	–	–	2.141 mPa·s
343.15 K, 175600 kPa	–	–	2.149 mPa·s
343.15 K, 200400 kPa	–	–	2.397 mPa·s
343.15 K, 200700 kPa	–	–	2.409 mPa·s
343.15 K, 225200 kPa	–	–	2.644 mPa·s
343.15 K, 225400 kPa	–	–	2.672 mPa·s
343.15 K, 249500 kPa	–	–	2.924 mPa·s
343.15 K, 249800 kPa	–	–	2.935 mPa·s
343.15 K, 276600 kPa	–	–	3.259 mPa·s
343.15 K, 277100 kPa	–	–	3.277 mPa·s
343.15 K, 300300 kPa	–	–	3.57 mPa·s
343.15 K, 301200 kPa	–	–	3.596 mPa·s
343.15 K, 325100 kPa	–	–	3.91 mPa·s
343.15 K, 325600 kPa	–	–	3.939 mPa·s
343.15 K, 350100 kPa	–	–	4.306 mPa·s
343.15 K, 352100 kPa	–	–	4.376 mPa·s
348.02 K, 152000 kPa	–	1.06e-09 m2/s	–
348.06 K, 25000 kPa	–	2.11e-09 m2/s	–
348.06 K, 101000 kPa	–	1.35e-09 m2/s	–
348.07 K, 100 kPa	–	2.57e-09 m2/s	–
348.07 K, 50500 kPa	–	1.79e-09 m2/s	–
348.07 K, 74500 kPa	–	1.57e-09 m2/s	–
348.07 K, 348000 kPa	–	5.2e-10 m2/s	–
348.08 K, 175000 kPa	–	9.55e-10 m2/s	–
348.08 K, 200000 kPa	–	8.68e-10 m2/s	–
348.08 K, 249500 kPa	–	7.32e-10 m2/s	–
348.08 K, 299000 kPa	–	6.15e-10 m2/s	–
348.08 K, 350000 kPa	–	5.16e-10 m2/s	–
